Where two headings read alike, the source gives them in different places.
Experiments:
THIK-1 channel [1] = assay: Basal current (I0) density of THIK-1 channel at 0 mV in HEK293T cells; assay type: cell-based; conditions: for Basal current (I0) density of THIK-1 channel: 0 mV, before agonist; for Basal current I0: THIK-1 & M1R
Text: (§1) Coding region of mGu2 (M1-P840) was amplified by conventional PCR with designed primers and the resulting product was subcloned into pEYFP-N1 vector at the BglII and EcoRI sites. The cDNAs for mouse THIK-2 channel and dimeric THIK channels were subcloned into pcDNA3.1(-) vector. To increase the surface membrane expression of the THIK-2 channel, 29 residues (Ser2-Ser30) were removed (ΔN-THIK-2). […] Ci-VSP-IRES-GFP vector was kindly gifted by Dr. Y. Okamura (Osaka University, Osaka, Japan). HEK293T cells or CHO-K1 cells were seeded on glasses and transfected with the plasmid DNAs for THIK channels, receptors and a transfection marker of yellow fluorescent protein (YFP). Electrophysiological experiments were performed 24–72 h after the transfection. […] Pertussis toxin (PTX) was purchased from Wako (Osaka, Japan). […] All reagents were dissolved at high concentration and stored at -20 °C as the stock solutions. The stock reagent solution was diluted at concentrations for the electrophysiological experiments. PTX was solved in the culture medium (final concentration, 300 ng/mL) and cells were incubated in it for more than 16 h. U73122 or U73343 (final concentration, 2 μM each) was dissolved in Hanks’ Balanced Salt Solution (HBSS, Invitrogen, Carlsbad, CA, USA) supplemented with 1 mM Ca^2+ and 0.3 mM Mg^2+. Cells were incubated in HBSS with U73122 or U73343 for 10 min at room temperature before the whole cell current recording.
(§2) Composition of bath solution was (in mM) 140 NaCl, 4 KCl, 1 CaCl2, 0.3 MgCl2, 10 HEPES (pH 7.4 adjusted with NaOH). The pipette solution for whole cell patch clamp experiments contained (mM) 130 KCl, 5 Na2-ATP, 3 EGTA, 0.1 CaCl2, 10 HEPES, 4 MgCl2, (pH 7.3 adjusted with KOH). GTP (0.3 mM) was supplemented in the pipette solution. Once the whole cell configuration was established, the cell was held at -80mV and ramp pulses (-120mV to +40mV for 0.4 sec) were applied every 5 sec. Various concentrations of the agonists were applied using a fast perfusion system (VC77SP, Warner Instruments, Hamden, CT, USA). The PKC inhibitor chelerythrine was included in the pipette solution.
(§3) The amplitude of the THIK-1 channel current at 0 mV was measured from every trace induced by the ramp pulse protocol to minimize the fraction of non-selective cationic leak current. The current amplitude before the agonist application was set as the basal current amplitude (I0). The effects of GPCRs on the THIK-1 channel were evaluated as the ratio of the current amplitude after the agonist application to I0 (Iagonist/I0). The EC50 values were estimated by fitting the concentration response curve to a Hill equation (Origin2016; OriginLab, Northampton, MA, USA). […] The effects of A2aR on the Gi/o-R-induced current increase of the THIK-1 channel was estimated as follows. […] All data are shown as means and S.D. The statistical significance between two or more than two groups was estimated by unpaired Student’s t-test or by a one-way analysis of variance (ANOVA) followed by Tukey’s test, respectively. […] Values of p≤ 0.05 were considered as statistically significant (***:p≤0.001, **:0.001<p≤0.01, *:0.01<p≤0.05, n.s.:p>0.05).

[2] = biological target: T1, M1R-YFP / ΔN-THIK-2 channel (Homo sapiens, UniProt P11229); assay: M1R-YFP-induced increase of ΔN-THIK-2 channel current in CHO-K1 cells; assay type: cell-based, mouse; conditions: oxo-M 10 μM
T1 construct: expressed in transfected cells; host or cells: CHO-K1
T1 sequence (P11229 1-460): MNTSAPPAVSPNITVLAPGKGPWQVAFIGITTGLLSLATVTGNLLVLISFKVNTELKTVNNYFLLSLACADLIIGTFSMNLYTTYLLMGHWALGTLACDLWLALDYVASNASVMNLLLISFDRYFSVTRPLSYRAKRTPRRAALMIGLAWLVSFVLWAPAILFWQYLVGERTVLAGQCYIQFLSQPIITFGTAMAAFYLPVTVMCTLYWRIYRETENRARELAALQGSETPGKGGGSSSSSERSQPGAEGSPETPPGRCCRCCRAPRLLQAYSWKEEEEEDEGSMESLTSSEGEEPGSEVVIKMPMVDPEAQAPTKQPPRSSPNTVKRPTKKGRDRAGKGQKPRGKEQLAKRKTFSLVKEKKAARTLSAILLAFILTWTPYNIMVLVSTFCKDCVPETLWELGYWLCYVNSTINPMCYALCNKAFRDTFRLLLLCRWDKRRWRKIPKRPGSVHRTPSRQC
Text: as §1, with “Cells were incubated in HBSS with U73122 or U73343 for 10 min at room temperature before the whole cell current recording.” left out

M1R = biological target: T2, M1R (Homo sapiens, UniProt P11229); assay: M1R-induced increase of THIK-1 channel current, whole cell patch clamp in HEK293T cells; assay type: cell-based; conditions: for Ioxo/I0: oxo-M 10 μM
T2 construct: expressed in transfected cells; host or cells: HEK293T
T2 sequence (P11229 1-460): T1 sequence (P11229 1-460)
Text: as §1, §2, §3

[3] = tested on: endogenously expressed channels in HEK293T cells; assay: Effect of receptor stimulation on the endogenous current in HEK293T cells without THIK-1; assay type: cell-based; conditions: no THIK-1
Text: The amplitude of the current increase at the 15th trace (ΔI15th) after the application of GABA or oxo-M were normalized to that at the 5th traces (ΔI5th) with or without additional activation of A2aR (ΔI15th/ΔI5th).
The current density at 0 mV (I0) in HEK293T cell transfected with indicated receptors and the effects of the receptor stimulation are shown as Mean and S.D.

M2R = biological target: T3, M2R (Homo sapiens, UniProt P08172); assay: M2R-induced increase of THIK-1 channel current, whole cell patch clamp in HEK293T cells; assay type: cell-based
T3 construct: expressed in transfected cells; host or cells: HEK293T
T3 sequence (P08172 1-466): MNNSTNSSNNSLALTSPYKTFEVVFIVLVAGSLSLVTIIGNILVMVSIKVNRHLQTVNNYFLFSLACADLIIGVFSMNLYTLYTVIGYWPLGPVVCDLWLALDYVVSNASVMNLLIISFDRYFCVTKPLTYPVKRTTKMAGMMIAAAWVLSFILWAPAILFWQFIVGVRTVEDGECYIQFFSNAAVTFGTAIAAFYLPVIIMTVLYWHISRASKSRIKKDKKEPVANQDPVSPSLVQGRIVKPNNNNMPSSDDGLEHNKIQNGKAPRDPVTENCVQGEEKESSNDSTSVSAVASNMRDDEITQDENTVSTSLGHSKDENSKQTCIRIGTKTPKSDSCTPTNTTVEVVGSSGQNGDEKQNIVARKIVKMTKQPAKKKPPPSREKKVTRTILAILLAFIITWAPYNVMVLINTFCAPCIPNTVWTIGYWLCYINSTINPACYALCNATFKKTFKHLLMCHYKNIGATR
Text: as §1, with “PTX was solved in the culture medium (final concentration, 300 ng/mL) and cells were incubated in it for more than 16 h. U73122 or U73343 (final concentration, 2 μM each) was dissolved in Hanks’ Balanced Salt Solution (HBSS, Invitrogen, Carlsbad, CA, USA) supplemented with 1 mM Ca^2+ and 0.3 mM Mg^2+. Cells were incubated in HBSS with U73122 or U73343 for 10 min at room temperature before the whole cell current recording.” left out
(§4) The amplitude of the THIK-1 channel current at 0 mV was measured from every trace induced by the ramp pulse protocol to minimize the fraction of non-selective cationic leak current. […] The effects of GPCRs on the THIK-1 channel were evaluated as the ratio of the current amplitude after the agonist application to I0 (Iagonist/I0). […]

M3R = biological target: T4, M3R (Homo sapiens, UniProt P20309); assay: M3R-induced increase of THIK-1 channel current, whole cell patch clamp in HEK293T cells; assay type: cell-based
T4 construct: expressed in transfected cells; host or cells: HEK293T
T4 sequence (P20309 whole entry): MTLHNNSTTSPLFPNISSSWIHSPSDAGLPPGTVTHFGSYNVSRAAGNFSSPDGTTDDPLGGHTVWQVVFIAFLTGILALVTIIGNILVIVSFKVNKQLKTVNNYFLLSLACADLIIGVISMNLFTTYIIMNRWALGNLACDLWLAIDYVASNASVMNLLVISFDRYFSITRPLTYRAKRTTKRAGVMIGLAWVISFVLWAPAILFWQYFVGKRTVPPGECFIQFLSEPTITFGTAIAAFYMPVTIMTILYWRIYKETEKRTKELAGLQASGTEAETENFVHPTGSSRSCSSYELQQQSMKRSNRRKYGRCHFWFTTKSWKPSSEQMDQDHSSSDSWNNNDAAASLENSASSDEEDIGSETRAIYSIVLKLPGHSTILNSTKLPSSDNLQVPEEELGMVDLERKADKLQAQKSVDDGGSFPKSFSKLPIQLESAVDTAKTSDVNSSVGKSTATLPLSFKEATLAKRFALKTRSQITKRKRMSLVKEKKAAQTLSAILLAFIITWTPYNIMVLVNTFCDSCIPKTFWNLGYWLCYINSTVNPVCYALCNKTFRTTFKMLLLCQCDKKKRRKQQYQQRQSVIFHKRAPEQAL
Text: as §1, with “PTX was solved in the culture medium (final concentration, 300 ng/mL) and cells were incubated in it for more than 16 h. U73122 or U73343 (final concentration, 2 μM each) was dissolved in Hanks’ Balanced Salt Solution (HBSS, Invitrogen, Carlsbad, CA, USA) supplemented with 1 mM Ca^2+ and 0.3 mM Mg^2+. Cells were incubated in HBSS with U73122 or U73343 for 10 min at room temperature before the whole cell current recording.” left out
as §4

THIK-1 channel [4] = tested on: THIK-1 channel; parameters: method as in PMID 24081450; conditions: cited from earlier work
THIK-1 channel [5] = tested on: THIK-1 channel; parameters: method as in PMID 34928298; conditions: cited from earlier work
[6] = chelerythrine 3 μM in pipette solution
[7] = chelerythrine 10 μM in pipette solution
[8] = chelerythrine 30 μM in pipette solution
[9] = concentration response of THIK-1 current increase
[10] = concentration response of THIK-1 current increase (Iagonist/I0), Hill fit

## COc1ccc2c(c1)CC[C@@H]1[C@@H]2CC[C@]2(C)[C@@H](NCCCCCCN3C(=O)CCC3=O)CC[C@@H]12 [U73343]
THIK-1 channel [1]; THIK-1 + M1R, PLC reagent 2 μM 10 min
  Basal current (I0) density of THIK-1 channel: 46.5 ± 22.3 (10)^n.s pA/pF
THIK-1 channel [1]; THIK-1 + M3R, PLC reagent 2 μM 10 min
  Basal current (I0) density of THIK-1 channel: 113.3 ± 122.1 (7)^n.s pA/pF
THIK-1 channel [1]; THIK-1 + mGlu1, PLC reagent 2 μM 10 min
  Basal current (I0) density of THIK-1 channel: 121.0 ± 104.7 (12)^n.s pA/pF
[2]
  effect of M1R-YFP on ΔN-THIK-2 channel after PLC reagent: not

## COc1ccc2c(c[n+](C)c3c4cc5c(cc4ccc23)OCO5)c1OC [chelerythrine, Chelerythrine]
M1R; 3–30 μM in the pipette solution
  effect of PKC inhibitor on the effect of M1R: did not inhibit the effect of M1R
M1R; [6]
  Ioxo/I0: 4.4 ± 2.4 ^n.s.
M1R; [7]
  Ioxo/I0: 2.2 ± 0.6 ^n.s.
M1R; [8]
  Ioxo/I0: 2.7 ± 1.0 ^n.s.
THIK-1 channel [1]; [6]
  Basal current I0: 43.1 ± 46.8 ^n.s. pA/pF
THIK-1 channel [1]; [7]
  Basal current I0: 56.4 ± 46.7 ^n.s. pA/pF
THIK-1 channel [1]; [8]
  Basal current I0: 22.8 ± 15.5 ^n.s. pA/pF

## C[N+](C)(C)CC#CCN1CCCC1=O [oxo-M, oxotremorine-M]
M1R; concentration response of THIK-1 current increase (Iagonist/I0), Hill fit, HEK293T
  EC50: 270 ± 160 nM
M1R; concentration response of THIK-1 current increase, HEK293T
  n; Hill coefficient: 1.14 ± 0.22
M1R; chelerythrine 0 μM (control of Table 3)
  Ioxo/I0: 2.8 ± 1.1
[3]; HEK293T transfected with M1R
  Effect of agonist (Iagonist/I0): 0.95 ± 0.15
[3]; HEK293T transfected with M2R
  Effect of agonist (Iagonist/I0): 0.97 ± 0.12
[3]; HEK293T transfected with M3R
  Effect of agonist (Iagonist/I0): 1.01 ± 0.13
M2R; [9]
  n; Hill coefficient: 1.54 ± 0.37
M2R; [10]
  EC50: 62700 ± 35800 nM
M3R; [9]
  n; Hill coefficient: 1.07 ± 0.43
M3R; [10]
  EC50: 400 ± 310 nM

## CCCCCCCCCCCCCC(=O)O[C@@H]1[C@@H](C)[C@@]2(O)[C@@H](C=C(CO)C[C@]3(O)C(=O)C(C)=C[C@@H]23)[C@@H]2C(C)(C)[C@]12OC(C)=O [phorbol myristate acetate]
THIK-1 channel [4]
  activation of the THIK-1 channel: did not activate

## phosphatidyl inositol bisphosphate [PIP2]
THIK-1 channel [5]
  activation of the THIK-1 channel: directly activate
